Measurements: ChEMBL document CHEMBL1201862, “PubChem BioAssay data set” (2004)
Counter-ions that a name gives are not always drawn.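 Interpolation was linear, between the two tested concentrations surrounding the appropriate level; five concentrations were tested over 48 hours in 96-well plates. GI50 marks 50% less growth.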 The source made the active and inactive calls. No stated cut-off is given here; in the data, active = GI50 up to about 1.1 µM and inactive = higher.

Tests used:
Assay in all cases: inhibition of tumour cell growth, NCI panel, 48 h
OVCAR-5 = system: OVCAR-5
A498 = system: A498
NCI-H460 = system: NCI-H460
KM12 = system: KM12
LOX IMVI = system: LOX IMVI
MCF7 = system: MCF7
HOP-62 = system: HOP-62
SN12C = system: SN12C
U-251 = system: U-251
RXF 393 = system: RXF 393
SK-MEL-5 = system: SK-MEL-5
786-0 = system: 786-0
UACC-257 = system: UACC-257
NCI-H226 = system: NCI-H226
SR = system: SR
A549 = system: A549
SNB-75 = system: SNB-75
MDA-MB-231 = system: MDA-MB-231
Malme-3M = system: Malme-3M
Hs-578T = system: Hs-578T

Structure (SMILES)	GI50 (OVCAR-5)	GI50 (A498)	GI50 (NCI-H460)	GI50 (KM12)	GI50 (LOX IMVI)	GI50 (MCF7)	GI50 (HOP-62)	GI50 (SN12C)	GI50 (U-251)	GI50 (RXF 393)	GI50 (SK-MEL-5)	GI50 (786-0)	GI50 (UACC-257)	GI50 (NCI-H226)	GI50 (SR)	GI50 (A549)	GI50 (SNB-75)	GI50 (MDA-MB-231)	GI50 (Malme-3M)	GI50 (Hs-578T)
CNC1=CC(=O)C2=C(C1=O)[C@H]1CC[C@]3(C)C(=O)CC[C@H]3[C@@H]1CC2	22.7 µM (inactive)	22.2 µM (inactive)	18.5 µM (inactive)	7.43 µM (inactive)	4.54 µM (inactive)	20.2 µM (inactive)	15.2 µM (inactive)	19.9 µM (inactive)	21.8 µM (inactive)	15.2 µM (inactive)	8.18 µM (inactive)	17.3 µM (inactive)	13.2 µM (inactive)	12.4 µM (inactive)	14.1 µM (inactive)	19.8 µM (inactive)	14.3 µM (inactive)	24.5 µM (inactive)	–	–
C[C@H](OCc1ccccc1)C(=O)N1CCS(=O)(=O)N2CCC[C@H]2C1=O	> 100 µM (inactive)	> 100 µM (inactive)	> 100 µM (inactive)	> 100 µM (inactive)	> 100 µM (inactive)	–	> 100 µM (inactive)	> 100 µM (inactive)	> 100 µM (inactive)	> 100 µM (inactive)	> 100 µM (inactive)	> 100 µM (inactive)	> 100 µM (inactive)	> 100 µM (inactive)	> 100 µM (inactive)	> 100 µM (inactive)	> 100 µM (inactive)	–	> 100 µM (inactive)	–
CCN(CC)c1ccc2c(c1)N=C1N=CC=CN1C2(c1ccc(N(C)C)cc1)c1ccc(N(C)C)cc1	13.3 µM (inactive)	17.5 µM (inactive)	5.62 µM (inactive)	4.42 µM (inactive)	5.25 µM (inactive)	–	10.9 µM (inactive)	5.27 µM (inactive)	4.32 µM (inactive)	8.57 µM (inactive)	11.9 µM (inactive)	7.73 µM (inactive)	5.24 µM (inactive)	10.8 µM (inactive)	3.61 µM (inactive)	12 µM (inactive)	11.6 µM (inactive)	–	12.7 µM (inactive)	–
CS(=O)(=O)c1ccc(COP(N)(=O)N(CCCl)CCCl)cc1 (stereo not drawn)	> 100 µM (inactive)	> 100 µM (inactive)	> 100 µM (inactive)	> 100 µM (inactive)	> 100 µM (inactive)	–	> 100 µM (inactive)	> 100 µM (inactive)	> 100 µM (inactive)	> 100 µM (inactive)	> 100 µM (inactive)	> 100 µM (inactive)	> 100 µM (inactive)	> 100 µM (inactive)	> 100 µM (inactive)	> 100 µM (inactive)	> 100 µM (inactive)	–	> 100 µM (inactive)	–
CO[C@@]12C[C@@H](C)[C@]34O[C@H]3C[C@]3(C)O[C@]43CC1=C(C)C(=O)O2	> 100 µM (inactive)	> 100 µM (inactive)	> 100 µM (inactive)	> 100 µM (inactive)	> 100 µM (inactive)	> 100 µM (inactive)	–	> 100 µM (inactive)	> 100 µM (inactive)	–	> 100 µM (inactive)	> 100 µM (inactive)	> 100 µM (inactive)	> 100 µM (inactive)	–	> 100 µM (inactive)	–	> 100 µM (inactive)	> 100 µM (inactive)	> 100 µM (inactive)
CCOC(=O)c1ccc(NCc2ccc3oc(=O)c(-c4ccccc4)nc3c2)cc1	> 100 µM (inactive)	61.1 µM (inactive)	> 100 µM (inactive)	> 100 µM (inactive)	31.8 µM (inactive)	15.8 µM (inactive)	> 100 µM (inactive)	> 100 µM (inactive)	61.2 µM (inactive)	8.36 µM (inactive)	23.6 µM (inactive)	34.5 µM (inactive)	20.3 µM (inactive)	94.2 µM (inactive)	34.9 µM (inactive)	68.5 µM (inactive)	9.48 µM (inactive)	64.7 µM (inactive)	18.8 µM (inactive)	–
CC1(C)OC([C@H](O)CO)C([C@H]2NCCS2)O1 (stereo partly drawn)	> 100 µM (inactive)	> 100 µM (inactive)	> 100 µM (inactive)	> 100 µM (inactive)	> 100 µM (inactive)	–	> 100 µM (inactive)	–	> 100 µM (inactive)	> 100 µM (inactive)	> 100 µM (inactive)	> 100 µM (inactive)	> 100 µM (inactive)	> 100 µM (inactive)	> 100 µM (inactive)	> 100 µM (inactive)	> 100 µM (inactive)	> 100 µM (inactive)	> 100 µM (inactive)	> 100 µM (inactive)
COC(=O)C1=C(c2ccc(OC)c(OC)c2)OC(c2ccc(OC)c(OC)c2)C1 (stereo not drawn)	32.6 µM (inactive)	12.7 µM (inactive)	41 µM (inactive)	32.7 µM (inactive)	19.5 µM (inactive)	–	59.4 µM (inactive)	27.9 µM (inactive)	36.1 µM (inactive)	25.6 µM (inactive)	15.6 µM (inactive)	31.6 µM (inactive)	36.3 µM (inactive)	37 µM (inactive)	18.5 µM (inactive)	42.3 µM (inactive)	41.4 µM (inactive)	–	30 µM (inactive)	–
C#Cc1cccc(Nc2ncnc3cc(OCCOC)c(OCCOC)cc23)c1 [ERLOTINIB HYDROCHLORIDE]	> 100 µM (inactive)	–	2.31 µM (inactive)	18.2 µM (inactive)	4.34 µM (inactive)	–	31.3 µM (inactive)	< 0.01 µM (active)	29.4 µM (inactive)	–	1.41 µM (inactive)	8.91 µM (inactive)	> 100 µM (inactive)	–	–	1.59 µM (inactive)	14.8 µM (inactive)	0.0139 µM (active)	–	5.01 µM (inactive)
O=C1[C@@H]2C3SC(c4ccccc43)[C@@H]2C(=O)N1c1ccccc1	> 100 µM (inactive)	> 100 µM (inactive)	> 100 µM (inactive)	> 100 µM (inactive)	> 100 µM (inactive)	–	> 100 µM (inactive)	> 100 µM (inactive)	> 66.4 µM (inactive)	> 100 µM (inactive)	> 100 µM (inactive)	> 74 µM (inactive)	> 100 µM (inactive)	> 100 µM (inactive)	> 100 µM (inactive)	> 100 µM (inactive)	28.6 µM (inactive)	–	> 100 µM (inactive)	–
O=C1Cc2c([nH]c3ccc(Br)cc23)-c2ccccc2N1 [KENPAULLONE]	> 100 µM (inactive)	> 100 µM (inactive)	> 100 µM (inactive)	2.73 µM (inactive)	5.35 µM (inactive)	–	65.8 µM (inactive)	> 100 µM (inactive)	> 51.5 µM (inactive)	5.11 µM (inactive)	> 28.4 µM (inactive)	> 46.3 µM (inactive)	> 100 µM (inactive)	> 100 µM (inactive)	4.21 µM (inactive)	> 90.2 µM (inactive)	> 50.8 µM (inactive)	> 100 µM (inactive)	> 100 µM (inactive)	> 100 µM (inactive)
COc1cc2c(c(OC)c1OC)-c1ccc(SC)c(=O)cc1C(CC(=O)Oc1cccc(F)c1)C2 (stereo not drawn)	4.55 µM (inactive)	0.0545 µM (active)	0.212 µM (active)	0.13 µM (active)	0.197 µM (active)	–	0.685 µM (active)	0.222 µM (active)	0.115 µM (active)	0.129 µM (active)	0.411 µM (active)	0.114 µM (active)	14.9 µM (inactive)	0.184 µM (active)	0.0542 µM (active)	0.577 µM (active)	0.138 µM (active)	–	0.267 µM (active)	–
CN(C)c1cccc2c(S(=O)(=O)NCCCNCCN)cccc12	38.1 µM (inactive)	29.6 µM (inactive)	62.4 µM (inactive)	67 µM (inactive)	66.8 µM (inactive)	–	67.8 µM (inactive)	78 µM (inactive)	29 µM (inactive)	36.8 µM (inactive)	20.8 µM (inactive)	53.1 µM (inactive)	> 100 µM (inactive)	64.6 µM (inactive)	19.1 µM (inactive)	66.5 µM (inactive)	13.6 µM (inactive)	41.5 µM (inactive)	61.5 µM (inactive)	22.3 µM (inactive)
CC1=CC(=O)C[C@]2(C)[C@@H](O)CC(C(C)CO)C[C@@H]12 (stereo partly drawn)	> 100 µM (inactive)	> 100 µM (inactive)	> 100 µM (inactive)	> 100 µM (inactive)	> 100 µM (inactive)	> 100 µM (inactive)	> 100 µM (inactive)	> 100 µM (inactive)	> 100 µM (inactive)	> 100 µM (inactive)	> 100 µM (inactive)	> 100 µM (inactive)	> 100 µM (inactive)	> 100 µM (inactive)	–	> 100 µM (inactive)	> 100 µM (inactive)	> 100 µM (inactive)	–	–
O=[N+]([O-])C(C(Cl)=C(Cl)Cl)=C(N1CCOCC1)N1CCOCC1	> 100 µM (inactive)	> 100 µM (inactive)	–	> 100 µM (inactive)	> 100 µM (inactive)	–	> 100 µM (inactive)	> 100 µM (inactive)	> 100 µM (inactive)	> 100 µM (inactive)	> 100 µM (inactive)	> 100 µM (inactive)	> 100 µM (inactive)	> 100 µM (inactive)	–	> 100 µM (inactive)	1.14 µM (inactive)	> 100 µM (inactive)	57.3 µM (inactive)	54.2 µM (inactive)
O=C(O)C(C(C(=O)O)P(=O)(O)O)P(=O)(O)O (stereo not drawn)	> 100 µM (inactive)	> 100 µM (inactive)	–	> 100 µM (inactive)	> 100 µM (inactive)	> 100 µM (inactive)	–	–	> 100 µM (inactive)	–	> 100 µM (inactive)	> 100 µM (inactive)	–	> 100 µM (inactive)	> 100 µM (inactive)	> 100 µM (inactive)	> 100 µM (inactive)	–	> 100 µM (inactive)	> 100 µM (inactive)
